In patent publication US20200000842A1, “COMPOSITION AND METHOD FOR IMPROVING QOL WITH MOLECULAR HYDROGEN IN CANCER- HAVING SUBJECT” (MiZ Company Limited, priority 2018, published 2020):

Columns and labels:
[1] = tested on: patient with stage 4 terminal pancreatic cancer
Protocol: (§1) A patient with stage 4 terminal pancreatic cancer (person) breathed a mixed gas of hydrogen and air using a gaseous hydrogen inhalation apparatus (MHG-2000α (registered trademark); MiZ Company Limited) for about 1 to 3 hours per day over about 8 months. The hydrogen concentration in MHG-2000α is about 6 to 7% by volume (hydrogen generation rate: about 140 ml/min).

[2] = tested on: patient with terminal systemic metastatic cancer; settings: person, 3 times about 2 hours each over about 1 month
Protocol: as §1, with “with” for “with stage 4”, “systemic metastatic” for “pancreatic”, “Limited, Kanagawa, Japan) total 3 times” for “Limited)”, “2” for “1 to 3”, “each time” for “per day”, “1 month before death of the patient.” for “8 months.”

[3] = tested on: patient with terminal pancreatic cancer; settings: person
Protocol: A patient with terminal pancreatic cancer (person) breathed a mixed gas of hydrogen and air using a gaseous hydrogen inhalation apparatus (MHG-2000α (registered trademark); MiZ Company Limited) over about 4 months. Here, the mixed gas of hydrogen and air was breathed twice a week (duration each time: 1 to 3 hours) over first 2 months and for about 24 hours per day over subsequent 2 months. The hydrogen concentration in MHG-2000α is about 6 to 7% by volume (hydrogen generation rate: about 140 ml/min).

[4] = normal temperature and normal pressure; cited from earlier work
[5] = about 6 to 7% by volume hydrogen
[6] = about 6 to 7% by volume hydrogen over about 4 months

**Q.** What does the source list for `[HH]` [hydrogen gas, molecular hydrogen]?
**A.** blood level of CA19-9 (pancreatic cancer marker) ([1]; about 6 months after the breathing of hydrogen gas, FIG. 1): sharply decreased; physical fatigue ([1]; after the first breathing): hardly complained about physical fatigue; survival after being told life expectancy of 3 months ([1]; person, stage 4, breathing about 1 to 3 hours per day): ≥ 9 months; growth of cancer by CT imaging examination once a month ([1]; person, about 6 to 7% by volume hydrogen, about 1 to 3 hours per day over about 8 months): no tendency of growth of cancer; appetite [2, 5]: recovered; complexion [2, 5]: improved; cancerous pain ([2]; mixed gas of hydrogen and air, about 6 to 7% by volume, no opioid): reduced; appetite [3, 6]: had appetite; insomnia [3, 6]: improved in insomnia; cancerous pain ([3]; about 6 to 7% by volume hydrogen over about 4 months (twice a week 1 to 3 hours for 2 months, then about 24 hours per day for 2 months), no opioid): did not complain about pain or oppression; solubility in water [4]: about 1.6 ppm
